Source: patent US20040198819A1, “Biological response modifier composition and uses thereof” (priority 2001, published 2004)

Columns and labels:
peritoneal macrophages [1] = test: Nitric oxide release by mouse peritoneal macrophages (Greiss reagent); format: cell-based, C57BL/6 mice; details: in vitro
Procedure: (§1) Peritoneal macrophages are harvested from C57BL/6 mice 72 hours after intraperitoneal injection of 1.5 ml of 4% protease peptone. The macrophages are then stimulated in vitro with medium alone, 50 ng LPS, or BRM. Measurements of the stimulation are performed with respect to TNF (by ELISA) and NO (by spectrophotometric assay using the Greiss reagent) levels in duplicate experiments.
In vitro synergy of BRM with LPS for nitric oxide (NO) is addressed in the same procedure as above, except NO is determined in the supernatant of the treated macrophages. As above, the assay for NO is spectrophotometric and uses a Greiss reagent.
In vitro synergy of BRM with IFN-γ for NO release is studied, using the same peritoneal mouse macrophages derived from C57BL/6 mice treated as above.

peritoneal macrophages [2] = test: TNF-α release by mouse peritoneal macrophages (ELISA); format: cell-based, C57BL/6 mice; details: in vitro culture
Procedure: as §1
In vitro synergy of BRM with IFN-γ for TNF-α release is studied using the same peritoneal mouse macrophages derived from C57BL/6 mice treated as above. […] The same macrophages stimulated with either LPS or IFN-γ release almost 3000 pg/ml of TNF-α.

In the case of “IFN-γ: interferon gamma, conventional macrophage activator”, the “release of NO by macrophages, stimulus alone” value (peritoneal macrophages [1]) is reported as “enhanced NO production” and the “release of TNF-α” value (peritoneal macrophages [2]) is reported as roughly 3000 pg/mL.
